We go through 1 compound from PMC8879825, “Identification of α-Glucosidase Inhibitors from Scutellaria edelbergii: ESI-LC-MS and Computational Approach” (Molecules, 2022).

In brackets after ≈: the same amount, converted by molar mass.

This assay addresses yeast α-glucosidase enzymes. Put plainly: α-Glucosidase inhibitory assay. It is filed as biochemical. The following applies: substrate p-nitrophenyl-α-D-glucopyranoside, pH 6.8, 37 °C.

Protocol: The α-glucosidase assay was performed using 50 mM phosphate buffer (pH 6.8). All samples were dissolved in DMSO. An enzyme (2 U/2 mL) 20 µL/well and test samples (0.5 mg/mL) 20 µL/well and 135 µL/well phosphate buffer were loaded into a 96-well plate, followed by 15 min of incubation at 37 °C. Substrate p-nitrophenyl-α-D-glucopyranoside (0.7 mM) 25 µL/well was added to the 96-well plate after 15 min of incubation, and readings were measured at 400 nm for 30 min. DMSO 7% was used as a positive control. Percent inhibition was calculated by using the following formula [30]. % Inhibition=100×O.D of tested samples/O.D. of control−100
OD is the optical density of the tested samples.

In the case of `C[C@H]1O[C@H](O[C@H]2[C@H](O)[C@@H](O)[C@@H](O[C@H]3[C@H](O)[C@@H](O)C(O)O[C@@H]3CO)O[C@@H]2CO)[C@H](O)[C@@H](O)[C@@H]1N[C@H]1C=C(CO)[C@@H](O)[C@H](O)[C@H]1O` (stereo partly shown) [acarbose], the “IC50 (α-glucosidase inhibition)” value is recorded as 377.26 ± 1.20 µg/mL (≈ 584 µM).
